The source of these data is paper PMC11557929, “Environment-sensitive turn-on fluorescent probe enables live cell imaging of myeloperoxidase activity during NETosis” (Communications Chemistry, 2024).

The structures appear in SMILES notation. Where only a bound is given, the exact number is not on record here.

As usually defined, the IC50 is the concentration that gives 50% inhibition. Broadly, the Ki is a measure of affinity in units of concentration, obtained from inhibition or displacement. A lower Ki goes with higher affinity.

The target in data set [1] is T1, MPO (Homo sapiens, UniProt P05164).
T1 sequence (P05164 49-745): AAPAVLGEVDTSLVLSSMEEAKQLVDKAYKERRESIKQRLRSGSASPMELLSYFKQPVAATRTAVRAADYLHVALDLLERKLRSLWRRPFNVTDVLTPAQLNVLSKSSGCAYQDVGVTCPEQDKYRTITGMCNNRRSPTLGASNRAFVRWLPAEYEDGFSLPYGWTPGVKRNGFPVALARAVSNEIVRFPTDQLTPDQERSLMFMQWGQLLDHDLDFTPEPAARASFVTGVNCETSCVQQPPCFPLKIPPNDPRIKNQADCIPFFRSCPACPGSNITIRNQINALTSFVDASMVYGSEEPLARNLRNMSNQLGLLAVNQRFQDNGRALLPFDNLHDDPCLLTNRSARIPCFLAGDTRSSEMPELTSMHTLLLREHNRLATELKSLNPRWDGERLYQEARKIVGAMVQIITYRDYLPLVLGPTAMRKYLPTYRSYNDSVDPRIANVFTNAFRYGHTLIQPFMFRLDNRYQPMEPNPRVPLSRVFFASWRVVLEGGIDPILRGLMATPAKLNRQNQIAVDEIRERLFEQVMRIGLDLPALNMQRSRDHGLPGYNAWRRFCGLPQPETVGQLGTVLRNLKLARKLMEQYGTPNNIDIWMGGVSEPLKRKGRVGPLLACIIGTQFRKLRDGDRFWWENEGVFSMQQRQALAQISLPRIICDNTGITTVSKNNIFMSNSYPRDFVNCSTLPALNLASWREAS
Nature of the data set: Amplex Red assay of MPO peroxidase activity. The data set is classed as biochemical. Particulars: for IC50: Amplex Red assay, t = 30 min, 100 pM MPO, 1 µM H2O2. From the text: Having obtained the fluorescent properties of probes 1-6, we determined their functional properties by the Amplex Red assay as previously reported (Table 1, Supplementary Figs. 1-6)[27]. In this assay, 10-acetyl-3,7-dihydroxyphenoxazine is oxidized by MPO in the presence of H2O2 to resorufin, a highly fluorescent compound with an fluorescence excitation and emission maxima of 571 and 585 nm, respectively. Fortunately, probes 1, 2, 4, 5, and 6 retained similar IC50 values as those previously reported for 2-thioxanthine-based inhibitors despite the presence of the environment-sensitive fluorophores[27],[33]. However, we noticed a slight negative trend in the IC50 of probes containing the shorter ethyl spacer. This effect was more evident in probe 3, which experienced a ~ 4-fold reduction in IC50 values compared to its counterpart probe 4.
MPO peroxidase activity and the determination of inhibitor potencies were performed as described before with minimal changes. In brief, to 78 uL of assay mixture (PBS (pH 7.4), 1 µM H2O2, and 20 µM Amplex Red) were added 2 μL of probe 1-6 in concentrations from 0 to 40 µM in DMSO (final DMSO concentration of 2%) and mixed for 1 min. The reactions were initiated by the addition of 20 μL 500 pM MPO (final MPO concentration of 100 pM) followed by mixing for 5 s. Fluorescent changes (RFU/s) were monitored at room temperature every 20 s for 30 min with excitation and emission filters set at 530 and 580 nm, respectively. Initial rates (V0) were determined using linear regression analysis of the first 600 s corresponding to the linear range of the DMSO control. To calculate IC50 values, V0 and probe concentration were fit to a dose-response curve with a standard Hill slope of -1 using nonlinear regression analysis. The kobs, kinact, and KI values for probe 1 were calculated exactly as described before.

The test system of data set [2] is MPO activity in human polymorphonuclear neutrophils (hPMN). Nature of the data set: Wash-free live-cell imaging of probes in hPMN during NETosis. The settings on record: 4 µM ionomycin, 1 µM probe, 3 h. The data set is classed as cell-based.
A short description of data set [3]: Fluorescence excitation and emission spectra in solvents of different polarity. Particulars: for fluorescence increase in CH2Cl2 compared to PBS buffer (pH 7.4): approximate values. It counts as physicochemical. As to the method: To validate the solvatochromic properties of the probes, we recorded the fluorescence excitation and emission spectra of probes 1-6 in a 10 μM solution in CH2Cl2, CH3CN, CH3OH, and PBS buffer (pH 7.4, Table 1, Supplementary Table 1). These solvents have different polarities thereby emulating the hydrophobic enzyme-probe binding site environment (Supplementary Figs. 1-6). […] This effect was less prominent for 3 and 4 with a ~ 110-fold fluorescence increase, and for 5 and 6 with a ~ 30-fold fluorescence increase.
Probes 1-6 were prepared into 10 mM DMSO stock solutions and diluted to 10 μM with CH2Cl2, CH3CN, CH3OH, or PBS (pH 7.4). The fluorescence excitation spectra of each probe was measured between 300 and 480 nm for probes 1-4 and 300 and 500 nm for probes 5 and 6. The fluorescence emission spectra of each probe was measured between 480 and 700 nm for probes 1-4 and 500 and 700 nm for probes 5 and 6.

The target in data set [4] is T1, MPO. Nature of the data set: Fluorescence turn-on of probe with purified MPO. The data set is classed as biochemical. Particulars: 1 µM probe, 15 µM MPO, 150 µM H2O2, PBS (pH 7.4). As to the method:
(§1) Furthermore, we confirmed the chemical stability of probe 1 in cell culture media with or without serum for 4 and 24 h at 37 °C (Supplementary Fig. 7).
(§2) To a stirring solution of the corresponding N-Boc aldehyde B1 or B2 (7.6 mmol) and AcOH (1.2 mmol) in dry CH3OH (30 mL) was added 4-amino-1H-imidazole-5-carboxamide (6.0 mmol). The reaction was stirred for 2.5 h under N2 before NaBH3CN (7.2 mmol) was added in one portion and the mixture was left stirring overnight under N 2. A solution of sat. aq. NaHCO3 was added and most of the CH3OH was removed in vacuo. The residue was extracted with EtOAc and the combined organic layers were dried over MgSO 4, filtered, and the crude product purified by flash silica gel column chromatog raphy (0-10% CH3OH/CH2Cl2) to give C1 or C2. […]
(§3) The solutions were incubated for 5 min and the fluorescence emission spectra was measured between 480 and 600 nm. […]
(§4) Probe 1 was diluted to 400 µM and incubated in CH3CN, RPMI 1640, or RPMI 1640 supplemented with 2% FCS for 0, 4, and 24 h at 37 °C under constant shaking. […] The supernatant was filtered and analyzed by HPLC. […]
(§5) Differentiation was assessed morphologically by fluorescent nuclear staining (Hoechst 33342) and by evaluation of CD11b expre ssion with a rat primary antibody directed against human CD11b (M1/70, Invitrogen, 1:400, 30 min, 4 °C) using a BD FACSVerse Flow Cytometer. Data were analyzed with FlowJo. […]

Data set [5] in a line: Chemical stability in cell culture media (HPLC). The data set is classed as physicochemical. Particulars: cell culture media with or without serum, 4 and 24 h, 37 °C. As to the method:
as §1, §2, §3, §4, §5

The subject of data set [6] is MPO activity in human polymorphonuclear neutrophils (hPMN). Nature of the data set: Wash-free live-cell imaging of probes in hPMN during NETosis. It counts as cell-based. The settings on record: 100 nM PMA, probe near IC50, 3 h, 37 °C; for MFI (mean fluorescence intensity): whole images. The method, then:
With probes 1-6 in hand, we opted for a cell-based screening strategy to find suitable probes to image MPO activity during NETosis (Fig. 1A). In this approach, we stimulated freshly isolated human polymorphonuclear neutrophils (hPMN) with PMA and incubated with probes 1-6 at concentrations near their IC50 for 3 h. […] Subsequently, probes that show a significant ‘’turn-on” fluorescence compared to unstimulated cells are selected and tested for colocalization with an anti-MPO antibody in fixed cells. With this cell-based strategy, potential suitable probes to image MPO activity during NETosis can be immediately identified. Therefore, live hPMN were incubated with PMA and probes 1-6 and imaged directly (Fig. 1B).
Colocalization analysis was performed with JaCoP[34].

[7] abbreviates: from kobs vs probe concentration.

Turning to `CN(C)c1ccc2c3c(cccc13)C(=O)N(CCn1c(=S)[nH]c(=O)c3[nH]cnc31)C2=O` [Probe 1], on MPO [1], the kinact/KI came out at 4263 M^−^1s^−^1 and half-maximal inhibition (IC50) was put at 854 ± 44 nM. On MPO [1] (setting [7]), the affinity, expressed as Ki, was 1080 ± 73 nM and the kinact turned out to be 0.0046 ± 0.0001 s^−^1. Moreover, the “probe signal in ionomycin-stimulated cells” value in data set [2] is reported as “not significantly different from unstimulated background levels”. In addition, the “fluorescence increase in CH2Cl2 compared to PBS buffer (pH 7.4)” value (“fluorescence increase in CH2Cl2” for short) in data set [3] (10 μM) is recorded as ~ 300 fold. In data set [3] (CH2Cl2, 10 μM), this molecule came in with a λem of 510 nm and a λex of 415 nm. In data set [3] (PBS (pH 7.4), 10 μM), this molecule had a λem of 560 nm and a λex of 457 nm. The “fluorescence increase with MPO compared to probe alone, ABAH pre-treated MPO or BSA” value on MPO [4] is given as ~ 13 fold. The chemical stability entry in data set [5] was “chemically stable”. Besides, in data set [6], the “S/B (signal-to-background ratio)” value was 16.7 and the “MFI (mean fluorescence intensity)” value amounted to 6.9 gray values.

On to `O=c1[nH]c(=S)n(CCOCCNc2ccc([N+](=O)[O-])c3nonc23)c2nc[nH]c12` [Probe 6], for which the IC50 on MPO [1] stood at 388 ± 35 nM. Moreover, the “fluorescence increase in CH2Cl2” value in data set [3] (10 μM) is recorded as ~ 30 fold. In data set [3] (CH2Cl2, 10 μM), this molecule showed a λem of 517 nm and a λex of 452 nm. In data set [3] (PBS (pH 7.4), 10 μM), this molecule came in with a λem of 558 nm and a λex of 488 nm. In data set [6], the “MFI (mean fluorescence intensity)” value was less than 0.1 gray values.

`CN(C)c1ccc2c3c(cccc13)C(=O)N(CCOCCn1c(=S)[nH]c(=O)c3[nH]cnc31)C2=O` [Probe 2] yielded an IC50 against MPO [1] of 479 ± 17 nM. Moreover, the “fluorescence increase in CH2Cl2” value in data set [3] (10 μM) is listed as ~ 300 fold. Besides, in data set [3] (CH2Cl2, 10 μM), the λem was 512 nm and the λex was determined as 415 nm. In data set [3] (PBS (pH 7.4), 10 μM), this molecule had a λem of 560 nm and a λex of 446 nm. Also, in data set [6], the “S/B (signal-to-background ratio)” value is given as 11.7 and the “MFI (mean fluorescence intensity)” value worked out at 3.0 gray values.

`CN(C)S(=O)(=O)c1ccc(NCCn2c(=S)[nH]c(=O)c3[nH]cnc32)c2nonc12` [Probe 3] gave a half-inhibitory concentration (IC50) against MPO [1] of 4570 ± 1830 nM. Also, the “fluorescence increase in CH2Cl2” value in data set [3] (10 μM) is on record as ~ 110 fold. Besides, in data set [3] (CH2Cl2, 10 μM), the λem is on record as 532 nm and the λex is 417 nm. In data set [3] (PBS (pH 7.4), 10 μM), this molecule registered a λem of 600 nm and a λex of 435 nm. In data set [6], the “S/B (signal-to-background ratio)” value was 8.9 and the “MFI (mean fluorescence intensity)” value worked out at 1.5 gray values.

Consider `O=c1[nH]c(=S)n(CCNc2ccc([N+](=O)[O-])c3nonc23)c2nc[nH]c12` [Probe 5], for which the IC50 against MPO [1] was determined as 497 ± 86 nM. The “fluorescence increase in CH2Cl2” value in data set [3] (10 μM) was ~ 30 fold. Further, in data set [3] (CH2Cl2, 10 μM), the λem is reported as 522 nm and the λex is reported as 452 nm. In data set [3] (PBS (pH 7.4), 10 μM), this molecule returned a λem of 558 nm and a λex of 473 nm. Moreover, the “fluorescence increase at λem in CH2Cl2 compared to PBS (pH 7.4)” value in data set [3] (supplementary figure legends) amounted to 40 x. Also, the “MFI (mean fluorescence intensity)” value in data set [6] is listed as less than 0.1 gray values.

On MPO [1], `CN(C)S(=O)(=O)c1ccc(NCCOCCn2c(=S)[nH]c(=O)c3[nH]cnc32)c2nonc12` [Probe 4] came in with a half-inhibitory concentration (IC50) of 1090 ± 151 nM. In data set [3] (10 μM), the “fluorescence increase in CH2Cl2” value is ~ 110 fold. In data set [3] (CH2Cl2, 10 μM), this molecule showed a λem of 535 nm and a λex of 420 nm. Besides, in data set [3] (PBS (pH 7.4), 10 μM), the λem worked out at 600 nm and the λex is given as 435 nm. In data set [6], the “S/B (signal-to-background ratio)” value came out at 7.3 and the “MFI (mean fluorescence intensity)” value is recorded as 1.8 gray values.
